Assay results from US20240287533A1, “GLUTEN MODIFICATION” (The Regents of the University of California, priority 2021, published 2024).
“Also recorded” adds a separate entry of the source.

What was measured:
human monocytes (THP-1) = assay: IL-8 production by THP-1 monocytes (ELISA); type: cell-based; conditions: 18 hours; for IL-8 production compared to the dsDNA-gld-1 complex: peptide in the presence of dsDNA; for IL-8 secretion: dsDNA+peptide, compared to media control, dsDNA alone or peptide alone
Method: (§1) In order to test the biological impact of gluten peptide fragment/dsDNA complexes, human monocytes (THP-1) and human colorectal adenocarcinoma cells (HT-29) were treated with medium as a control, dsDNA alone, gld-1 alone, or dsDNA+gld-1 for 18 hours, then production and secretion of interleukin-8 (IL-8) were assessed by ELISA.

Escherichia coli dsDNA = assay: Small Angle X-ray Scattering (SAXS) of peptide-dsDNA complexes; type: binding; conditions: peptide incubated with genomic E. coli dsDNA
Method: The peaks correspond to a rhombic columnar lattice with inter dsDNA spacing, d=4.0 nm, and tilt angle, γ=104.6°. To facilitate visualization, spectra were manually offset vertically by a multiplicative factor.
Double stranded DNA (dsDNA) is an example of a PAMP that is readily available in the gastrointestinal tract (e.g., from food or the gut microbiome). To assess the ability of gluten derived peptide gld-1 to bind dsDNA, Escherichia coli dsDNA was incubated with gld-1, and the formation of an ordered dsDNA-gld-1 complex was assessed.
Small Angle X-ray Scattering (SAXS) measurements of the complex produced Bragg reflections at q10=1.61 and q11=2.55 nm^−1.
Genomic E. coli dsDNA was incubated with gld-2 and gld-3 to test the formation of an ordered dsDNA-peptide complex.

wild-type macrophages = assay: Cytokine gene expression (qPCR) in wild-type macrophages; type: cell-based, mouse; conditions: dsDNA-peptide complex, 20 hours
Text: (§2) To further validate the role of the dsDNA-gld-1 complex in the innate immune activation of TLR9, TLR9 knock-out (TLR9KO) mouse macrophages were compared to wild-type controls. […] Such increased gene expression was attenuated in TLR9KO macrophages, which lack TLR9 (FIG. 6C).

[1] = system: human colorectal adenocarcinoma cells (HT-29); assay: IL-8 production by HT-29 cells (ELISA); type: cell-based; conditions: dsDNA+peptide, 18 hours, compared to dsDNA or peptide alone or media control
Method: as §1

[2] = system: TLR9 knock-out (TLR9KO) mouse macrophages; assay: Cytokine gene expression (qPCR) in TLR9 knockout macrophages; type: cell-based; conditions: dsDNA-peptide complex, 20 hours, TLR9KO versus wild-type
Text: as §2

human wild-type TLR9 = molecular target: T1, human wild-type TLR9 (Homo sapiens, UniProt Q9NR96); assay: NF-κB/IL-8 luciferase reporter in HEK293 cells transfected with TLR9 plasmid; type: cell-based; conditions: 4 hours
T1 construct: expressed in transfected cells
T1 sequence (Q9NR96 26-1032): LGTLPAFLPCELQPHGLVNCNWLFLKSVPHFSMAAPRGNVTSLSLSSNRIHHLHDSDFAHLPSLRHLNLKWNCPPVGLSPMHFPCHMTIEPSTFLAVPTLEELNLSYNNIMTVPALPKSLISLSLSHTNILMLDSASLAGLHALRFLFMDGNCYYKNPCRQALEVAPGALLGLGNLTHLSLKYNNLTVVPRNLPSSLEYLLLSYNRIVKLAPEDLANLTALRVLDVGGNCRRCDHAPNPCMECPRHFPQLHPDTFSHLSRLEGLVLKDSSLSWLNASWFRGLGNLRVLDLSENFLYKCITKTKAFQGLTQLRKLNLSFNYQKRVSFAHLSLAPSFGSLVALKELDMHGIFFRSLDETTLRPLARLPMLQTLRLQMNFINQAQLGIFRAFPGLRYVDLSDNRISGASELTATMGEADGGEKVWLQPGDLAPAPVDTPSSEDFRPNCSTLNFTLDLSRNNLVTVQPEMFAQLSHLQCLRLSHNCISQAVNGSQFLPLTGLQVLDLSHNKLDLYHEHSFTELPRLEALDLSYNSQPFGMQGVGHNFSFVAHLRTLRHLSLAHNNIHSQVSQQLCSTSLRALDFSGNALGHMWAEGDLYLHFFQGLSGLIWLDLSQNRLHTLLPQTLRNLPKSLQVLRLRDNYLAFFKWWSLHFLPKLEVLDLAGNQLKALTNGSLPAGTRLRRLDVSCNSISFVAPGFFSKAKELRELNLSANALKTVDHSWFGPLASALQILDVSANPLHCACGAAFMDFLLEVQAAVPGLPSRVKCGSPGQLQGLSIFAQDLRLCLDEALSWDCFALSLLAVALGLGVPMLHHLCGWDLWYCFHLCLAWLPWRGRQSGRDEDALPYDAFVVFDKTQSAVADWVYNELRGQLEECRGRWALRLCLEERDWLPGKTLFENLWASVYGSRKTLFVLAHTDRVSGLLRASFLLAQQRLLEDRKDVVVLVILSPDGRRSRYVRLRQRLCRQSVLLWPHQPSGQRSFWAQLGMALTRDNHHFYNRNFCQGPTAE
Method: TLR9, Toll-like Receptor 9.
(§3) After 48 hours of recovery, cells were then treated for 4 hours with medium as a control, dsDNA alone, gld-1 peptide alone, or dsDNA-gld-1 complex, and luciferase activity measured.

[3] = system: HEK293 cells (which do not express TLR9); assay: NF-κB/IL-8 luciferase reporter in HEK293 cells transfected with pcDNA3.1 vector control; type: cell-based, human; conditions: 4 hours
Method: as §3

With “LAAQLWQIPEQSRAQAIHNVVH (listed as Triticum aestivum) [gld-1A, variant of gld-1 in which all cysteines were replaced with alanines]” the “IL-8 production compared to the dsDNA-gld-1 complex” value (human monocytes (THP-1)) was “reduced the dsDNA-peptide complex activity”.
With “LWQIPEQSQCQAIHNVVHA (listed as Triticum aestivum) [gld-2, single mutation of gld-1 replacing a cationic amino acid with glutamine]” the “IL-8 production compared to the dsDNA-gld-1 complex” value (human monocytes (THP-1)) was “attenuated production of IL-8” and the “formation of an ordered nanocrystalline dsDNA-peptide complex (Bragg peaks)” value (“formation” below) (Escherichia coli dsDNA) was “inability of these two peptides to form an ordered nanocrystalline columnar structure with dsDNA”.
For “LWQIPEQSQCQAIHNVVQA (listed as Triticum aestivum) [gld-3, double mutation of gld-1 replacing cationic amino acids with glutamine]”, the “IL-8 production compared to the dsDNA-gld-1 complex” value (human monocytes (THP-1)) was “attenuated production of IL-8” and the “formation” value (Escherichia coli dsDNA) was “inability of these two peptides to form an ordered nanocrystalline columnar structure with dsDNA”.
For “LWQIPEQSRCQAIHNVVHA (listed as Triticum aestivum) [gld-1]”, the “interleukin-6 (IL-6) gene expression” value (wild-type macrophages) was “significant increase”, the “keratinocyte-derived chemokine (KC) gene expression” value (wild-type macrophages) was “significant increase” and the IL-8 secretion [1] was “increased secretion of IL-8”. For the same sequence, the IL-6 gene expression [2] was “attenuated”, the IL-8 secretion (human monocytes (THP-1)) was “significant increase in IL-8 secretion” and the “NF-κB/IL-8 activation (luciferase)” value (human wild-type TLR9; dsDNA-peptide complex, compared to dsDNA alone) was “significantly higher activation”. The “NF-κB/IL-8 activation (luciferase)” value (human wild-type TLR9; dsDNA-peptide complex, compared to the media control) was “significant increase”, the “NF-κB/IL-8 activation (luciferase)” value (human wild-type TLR9; peptide alone, compared to the media control) was “did not significantly increase activation” and the “formation” value (Escherichia coli dsDNA) was “form strongly immunomodulatory complexes with dsDNA; also recorded: able to organize dsDNA into a nano-crystalline lattice structure; also recorded: able to form a well-structured complex”. The “NF-κB/IL-8 luciferase reporter signal” value ([3]; dsDNA-peptide complex) was “comparable NF-κB/IL-8 luciferase reporter signal to the media control” and the “NF-κB/IL-8 luciferase reporter signal” value ([3]; peptide alone) was “comparable NF-κB/IL-8 luciferase reporter signal to the media control”.
For “RAAQQLRDVSAKARSVAVSQVAR (listed as Triticum aestivum) [gld-4A, cysteine-to-alanine mutant of gld-4]”, the “IL-8 production, gld-4A compared to gld-4” value (human monocytes (THP-1); with dsDNA) was “No significant difference”.
With “RCCQQLRDVSAKCRSVAVSQVAR (listed as Triticum aestivum) [gld-4]” the IL-8 secretion (human monocytes (THP-1)) was “stimulated IL-8 production” and the “IL-8 production compared to the dsDNA-gld-1 complex” value (human monocytes (THP-1)) was “smaller than the dsDNA-gld-1 complex”.
